# Literature values in US20250360113A1, “ADMINISTRATION OF DHB TO INCREASE BENEFIT OF LOSING WEIGHT OF INTERMITTENT FASTING” (NANJING NUTRABUILDING BIO-TECH CO., LTD., priority 2023, published 2025).
# Assays:
# [1] = system: brown adipocyte; conditions: by increasing transcription of PRDM16 via AMPK activation and PGC-1α recruitment; cited from earlier work
# [2] = obese db/db mice; cited from earlier work
smiles,measurement,setting,value
"COc1ccc2cc3[n+](cc2c1OC)CCc1cc2c(cc1-3)OCO2 [BBR, berberine]",brown adipocyte differentiation and brown adipose tissues (BAT) thermogenesis,[1],promote
same,energy expenditure and adaptive thermogenesis,[2],increase
same,thermogenic program in BAT,[2],promote
same,weight gain,[2],reduce
